How the values were obtained:
[1] = human plasma; cited from earlier work
NCIES0808 cells = assay: Two-dimensional gel analysis with MS identification; format: cell-based, human; details: − = down, 1 = no change; for Spot 154, Translin-associated factor X: modulation vs control media / Spot 240, Proteasome 26S subunit 13; Endophilin B1: modulation vs control media / Spot 284, Proteasome 26S subunit: modulation vs control media / Spot 583, hnRNP C1/C2: modulation vs control media / Spot 612, Myosin Regulatory Light Chain: modulation vs control media / Spot 667, Dismutase Cu/Zn Superoxide: modulation vs control media / Spot 685, hnRNP C1/C2: modulation vs control media / Spot 746, Actin-like 6A; Eukaryotic Initiation Factor 4All: modulation vs control media / Spot 938, Nuclear Chloride Channel protein: modulation vs control media / Spot 940, Ubiquilin 1; Phosphatase 2A: modulation vs control media: 3 hours; for Spot 452, acid phosphatase 1: modulation vs control media / Spot 477, diazepam binding inhibitor: modulation vs control media / Spot 530, ribosomal protein SA: modulation vs control media / Spot 652, proteasome beta 3: modulation vs control media / Spot 720, dCTP pyrophosphatase 1: modulation vs control media / Spot 773, proteasome beta 4: modulation vs control media / Spot 1057, Arsenite translocating ATPase; Spermine synthetase: modulation vs control media: 6 hours
Experimental: NCIES0808 cells were plated in T25 flasks in experimental conditions similar to those described in the PCR array section. At the end of the treatment time, cells were trypsinized as described in the PCR array section and washed twice in ice cold TBS and snap frozen in liquid nitrogen. Further processing for Western blots was carried out at UMass.
Before isoelectric focusing (IEF), samples were solubilized in 40 mM Tris, 7 M urea, 2 M thiourea, and 1% C7 zwitterionic detergent, reduced with tributylphosphine, and alkylated with 10 mM acrylamide for 90 min at room temperature. After the sample was run through a 10-kDa cutoff Amicon Ultra device with at least 3 volumes of the resuspension buffer, consisting of 7 M urea, 2 M thiourea, and 2% CHAPS to reduce the conductivity of the sample. One hundred micrograms of protein were subjected to IEF on 11-cm pH 3 to 10, pH 4 to 7 or pH 6 to 11 immobilized pH gradient strips (GE, Amersham, USA) to 100,000 volts hour. After IEF, immobilized pH gradient strips were equilibrated in 6 M urea, 2% SDS, 50 mM Tris-acetate buffer, pH 7.0, and 0.01% bromphenol blue and subjected to SDS-polyacrylamide gel electrophoresis on 8 to 16% Tris-HCl Precast Gel, 1 mm (Bio-Rad, USA). The gels were run in duplicate. They were fixed, stained in SYPRO Ruby, 80 mL/gel (Invitrogen, USA) and imaged on Fuji FLA-5100 laser scanner.
Analysis of all gel images was performed using Progenesis Discovery and Pro (Nonlinear Dynamics Inc., Newcastle upon Tyne, UK). After spot detection, matching, background subtraction, normalization, and filtering, data for SYPRO Ruby gel images was exported. […] Manual annotation of each statistically significant spots was performed to assure accurate detection.
Tryptic peptides extracted from respective gel plugs were dried down to a 10 ul volume and acidified with 1-2 ul of 1% TFA. Samples were loaded on an uC18 Zip Tip (Millipore, Corp) after pre-equilibration in 0.1% TFA. After washing with 2×10 ul aliquots of 0.1% TFA, samples were deposited directly onto the MALDI sample target using 1 ul of Matrix solution 15 mg/ml of 2,5 Dihydroxybenzoic Acid (MassPrep DHB, Waters Corp.) in 50:50 Acetonitrile: 0.1% TFA. Samples were allowed to air dry prior to insertion into the mass spectrometer. Analysis were performed on a Kratos Axima QIT (Shimadzu Instruments) matrix-assisted-laser desorption/ionization (MALDI) mass spectrometer. Peptides were analyzed in positive ion mode in mid mass range (700-3000 Da). The instrument was externally calibrated with Angiotensin II (1046.54), P14R (1533.86) and ACTH (18-39) 2465.20 Da. Precursors were selected based on signal intensity at a mass resolution width of 250 for CID fragmentation using Argon as the collision gas. Database searches were performed in house with Mascot (Matrix Sciences, Ltd.) using the Peptide Mass Fingerprint program for MS data and the MS/MS Ion Search program for CID data. All identifications were confirmed or established with CID (MS/MS) data.
NCIES0808 cells treated for 3, 6 and 24 hours were subjected to 2-D gel electrophoreses and were analyzed to identify protein-level changes relative to the control media samples. A comparative analysis of spots across multiple duplicated gels was performed, comparing the “control media sample” against all of the treated samples at both the 50 uM and 100 uM doses. The analysis included the identification of spot changes over the time course due to an increase, decrease, or post-translational modification.

Coenzyme Q10 [CoQ10]
Share of the molecule found in the reduced form (Q10H2) [1]: 90%
Spot 154, Translin-associated factor X: modulation vs control media (NCIES0808 cells; 50 uM Q10): 1
Spot 240, Proteasome 26S subunit 13; Endophilin B1: modulation vs control media (NCIES0808 cells; 50 uM Q10): −1.3
Spot 284, Proteasome 26S subunit: modulation vs control media (NCIES0808 cells; 50 uM Q10): −1.1
Spot 583, hnRNP C1/C2: modulation vs control media (NCIES0808 cells; 50 uM Q10): 1.4
Spot 612, Myosin Regulatory Light Chain: modulation vs control media (NCIES0808 cells; 50 uM Q10): 1.4
Spot 667, Dismutase Cu/Zn Superoxide: modulation vs control media (NCIES0808 cells; 50 uM Q10): −1.1
Spot 685, hnRNP C1/C2: modulation vs control media (NCIES0808 cells; 50 uM Q10): 1.2
Spot 746, Actin-like 6A; Eukaryotic Initiation Factor 4All: modulation vs control media (NCIES0808 cells; 50 uM Q10): −1.3
Spot 938, Nuclear Chloride Channel protein: modulation vs control media (NCIES0808 cells; 50 uM Q10): −1.2
Spot 940, Ubiquilin 1; Phosphatase 2A: modulation vs control media (NCIES0808 cells; 50 uM Q10): 1
Spot 154, Translin-associated factor X: modulation vs control media (NCIES0808 cells; 100 uM Q10): −1.9
Spot 240, Proteasome 26S subunit 13; Endophilin B1: modulation vs control media (NCIES0808 cells; 100 uM Q10): 1.5
Spot 284, Proteasome 26S subunit: modulation vs control media (NCIES0808 cells; 100 uM Q10): −1.6
Spot 583, hnRNP C1/C2: modulation vs control media (NCIES0808 cells; 100 uM Q10): 1.5
Spot 612, Myosin Regulatory Light Chain: modulation vs control media (NCIES0808 cells; 100 uM Q10): 1.4
Spot 667, Dismutase Cu/Zn Superoxide: modulation vs control media (NCIES0808 cells; 100 uM Q10): −1.4
Spot 685, hnRNP C1/C2: modulation vs control media (NCIES0808 cells; 100 uM Q10): 1.2
Spot 746, Actin-like 6A; Eukaryotic Initiation Factor 4All: modulation vs control media (NCIES0808 cells; 100 uM Q10): −1.2
Spot 938, Nuclear Chloride Channel protein: modulation vs control media (NCIES0808 cells; 100 uM Q10): −1.2
Spot 940, Ubiquilin 1; Phosphatase 2A: modulation vs control media (NCIES0808 cells; 100 uM Q10): 1.3
Spot 452, acid phosphatase 1: modulation vs control media (NCIES0808 cells; 50 uM Q10): −1.3
Spot 477, diazepam binding inhibitor: modulation vs control media (NCIES0808 cells; 50 uM Q10): −1.4
Spot 530, ribosomal protein SA: modulation vs control media (NCIES0808 cells; 50 uM Q10): −1.2
Spot 652, proteasome beta 3: modulation vs control media (NCIES0808 cells; 50 uM Q10): −1.1
Spot 720, dCTP pyrophosphatase 1: modulation vs control media (NCIES0808 cells; 50 uM Q10): −1.2
Spot 773, proteasome beta 4: modulation vs control media (NCIES0808 cells; 50 uM Q10): −1.1
Spot 1057, Arsenite translocating ATPase; Spermine synthetase: modulation vs control media (NCIES0808 cells; 50 uM Q10): −1.1
Spot 452, acid phosphatase 1: modulation vs control media (NCIES0808 cells; 100 uM Q10): −1.5
Spot 477, diazepam binding inhibitor: modulation vs control media (NCIES0808 cells; 100 uM Q10): −1.2
Spot 530, ribosomal protein SA: modulation vs control media (NCIES0808 cells; 100 uM Q10): −1.4
Spot 652, proteasome beta 3: modulation vs control media (NCIES0808 cells; 100 uM Q10): −1.3
Spot 720, dCTP pyrophosphatase 1: modulation vs control media (NCIES0808 cells; 100 uM Q10): −1.2
Spot 773, proteasome beta 4: modulation vs control media (NCIES0808 cells; 100 uM Q10): −1.2
Spot 1057, Arsenite translocating ATPase; Spermine synthetase: modulation vs control media (NCIES0808 cells; 100 uM Q10): −1.2
Spot 16, alpha 2-HS glycoprotein (Bos Taurus, cow): modulation vs control media (NCIES0808 cells; 24 hours, 50 uM Q10): 1.4
Spot 130, ribosomal proten P2; histone H2A: modulation vs control media (NCIES0808 cells; 24 hours, 50 uM Q10): −1.3
Spot 180, beta actin: modulation vs control media (NCIES0808 cells; 24 hours, 50 uM Q10): 1.3
Spot 234, hnRNP C1/C2: modulation vs control media (NCIES0808 cells; 24 hours, 50 uM Q10): −1.2
Spot 244, heat shock protein 70 kD: modulation vs control media (NCIES0808 cells; 24 hours, 50 uM Q10): 1.1
Spot 275, microtubule associated protein: modulation vs control media (NCIES0808 cells; 24 hours, 50 uM Q10): 1.1
Spot 311, beta tubulin: modulation vs control media (NCIES0808 cells; 24 hours, 50 uM Q10): 1.7
Spot 314, proteasome alpha 3: modulation vs control media (NCIES0808 cells; 24 hours, 50 uM Q10): 1.1
Spot 363, ATP dependent helicase II: modulation vs control media (NCIES0808 cells; 24 hours, 50 uM Q10): 1.2
